According to US8188086B2, “Specific salt, anhydrous and crystalline form of a dihydropteridione derivative” (Boehringer Ingelheim International GmbH, priority 2006, dated 2012):

Key:
Type in all cases: physicochemical
[1] = Solubility in aqueous media
physchem = assay: physchem
Procedure: This hydrated form of the trihydrochloride salt of the compound N-[trans-4-[4-(cyclopropylmethyl)-1-piperazinyl]cyclohexyl]-4-[[(7R)-7-ethyl-5,6,7,8-tetrahydro-5-methyl-8-(1-methylethyl)-6-oxo-2-pteridinyl]amino]-3-methoxy-benzamide of formula (I) is highly soluble (>10 mg/ml) in propylenglycol, glycofurol, Cremophor RH40 (30% aqueous solution), Poloxamer 188 (20% aqueous solution), Solutol HS 15 (20% aqueous solution) as well as HP-β-cyclodextrin (20%-, 10%-, 5%-aqueous solutions). • Solid state properties of an hydrated form of the trihydrochloride salt of N-[trans-4-[4-(cyclopropylmethyl)-1-piperazinyl]cyclohexyl]-4-[[(7R)-7-ethyl-5,6,7,8-tetrahydro-5-methyl-8-(1-methylethyl)-6-oxo-2-pteridinyl]amino]-3-methoxy-benzamide. • Appearance

[2] = Solid state stability under harsh stress conditions
Excerpt: No significant decomposition or impurities (Σ<2.4%) can be observed under the applied stress conditions.

[3] = Stability of hydrate / anhydrous form (humidity, ambient conditions, heating)
Excerpt: Under standard conditions the crystalline trihydrochloride salt form of N-[trans-4-[4-(cyclopropylmethyl)-1-piperazinyl]cyclohexyl]-4-[[(7R)-7-ethyl-5,6,7,8-tetrahydro-5-methyl-8-(1-methylethyl)-6-oxo-2-pteridinyl]amino]-3-methoxy-benzamide according to the invention is present in the form of an hydrate and is obtainable after drying with a changing stoichiometry (1-3 water equivalents). The hydrate with a stoichiometry close to a trihydrate seems to be the stable hydrated form under ambient conditions and can be obtained after conditioning of the dried material. The crystal water is tightly bound.
At about 260° C. another strong endothermic peak can be observed in the DSC-diagram, indicating melting of the dehydrated form. The onset of this melting event is at about 245° C. Melting occurs, however, under decomposition, indicated by the accompanied weight loss upon melting. When performing a TG-IR coupling experiment, it can be shown that hydrochloric acid is released upon decomposition. The respective anhydrous form, obtained by heating a sample up to 140° C. is not stable.

Question: Which results are given for `CC[C@@H]1C(=O)N(C)c2cnc(Nc3ccc(C(=O)N[C@H]4CC[C@H](N5CCN(CC6CC6)CC5)CC4)cc3OC)nc2N1C(C)C.Cl` [N-[trans-4-[4-(cyclopropylmethyl)-1-piperazinyl]cyclohexyl]-4-[[(7R)-7-ethyl-5,6,7,8-tetrahydro-5-methyl-8-(1-methylethyl)-6-oxo-2-pteridinyl]amino]-3-methoxy-benzamide]?
Answer: solubility in physiologically acceptable solvents [1]: readily soluble in physiologically acceptable solvents; pH dependent solubility profile in aqueous media ([1]; conclusion from Table I): high solubility in acidic and neutral media and strongly reduced solubility in basic media; solubility ([1]; pH 2.2, aqueous buffer): > 10000 µg/mL; solubility ([1]; pH 3, aqueous buffer): 6200 µg/mL; solubility ([1]; pH 4, aqueous buffer): 7200 µg/mL; solubility ([1]; pH 5, aqueous buffer): 7200 µg/mL; solubility ([1]; pH 6, aqueous buffer): 7100 µg/mL; solubility ([1]; pH 7.4, aqueous buffer): 7800 µg/mL; solubility ([1]; simulated gastric fluid): > 10000 µg/mL; solubility ([1]; water): > 10000 µg/mL; solubility (physchem): > 10000 µg/mL; solubility (physchem; aqueous with cosolvent or surfactant or cyclodextrin): > 10000 µg/mL; solubility (physchem; organic solvent or mixture): > 10000 µg/mL; decomposition or impurities (Σ) ([2]; 24 hours at 105° C., 72 hours at 70° C. and >90% rel. humid., or 24 hours in a Xenotester (λ=300-800 nm, 250 W·m^−2)): < 2.4%; stability in the solid state ([2]; harsh stress conditions (105° C. 24 h; 70° C./>90% rel. humid. 72 h; Xenotester 24 h)): very stable in the solid state; stability under ambient conditions compared to the anhydrous form ([3]; ambient conditions): advantage of stability under ambient conditions; weight loss on lowering the humidity ([3]; humidity down to 10% r.h.): does not result in a significant weight loss

Question: With `CC[C@@H]1C(=O)N(C)c2cnc(Nc3ccc(C(=O)N[C@H]4CC[C@H](N5CCN(CC6CC6)CC5)CC4)cc3OC)nc2N1C(C)C.Cl` [anhydrous form, N-[trans-4-[4-(cyclopropylmethyl)-1-piperazinyl]cyclohexyl]-4-[[(7R)-7-ethyl-5,6,7,8-tetrahydro-5-methyl-8-(1-methylethyl)-6-oxo-2-pteridinyl]amino]-3-methoxy-benzamide] as the compound, how does the “stability of the anhydrous form” value ([3]; obtained by heating a sample up to 140° C.) read?
Answer: not stable

Question: With `CC[C@@H]1C(=O)N(C)c2cnc(Nc3ccc(C(=O)N[C@H]4CC[C@H](N5CCN(CC6CC6)CC5)CC4)cc3OC)nc2N1C(C)C.Cl` [trihydrochloride salt, N-[trans-4-[4-(cyclopropylmethyl)-1-piperazinyl]cyclohexyl]-4-[[(7R)-7-ethyl-5,6,7,8-tetrahydro-5-methyl-8-(1-methylethyl)-6-oxo-2-pteridinyl]amino]-3-methoxy-benzamide] as the compound, how does the “solubility in water compared to the free base” value [1] read?
Answer: much more soluble than the free base
